How the values were obtained:
dopamine release = details: background statement; cited from earlier work
[1] = at every relevant dosing level tested
Source text: The low intensity behavioural effects are here included into the locomotor and rearing syndrome.
The high intensity syndrome of stereotypy is here considered, if the behavioural repertoire of the rat becomes strongly restricted in variation and consists of the continuous repetition of one or a few items of behaviour.
The syndrome of stereotyped sniffing behaviour is thus performed continuously on only a small restricted area of the cage. […] During this stage of high intensity stereotypy all normal behavioural elements are absent including behaviour such as eating, drinking, grooming and normal explorative investigation of the environment. […] The rats are here usually sitting in a typical crouched posture in a corner of the cage. Backward locomotion may occasionally be observed.
The following rating scale is used for the high intensity stereotypy on the condition that the behavioural syndromes are as described above:
+=only stereotyped sniffing
++=stereotyped sniffing and episodic licking
+++=Continuous licking and/or biting gnawing

Structure (SMILES) | dopamine releasing properties (dopamine release) | side effects as measured by abnormal stereotyped behaviour [1]
COC(=O)[C@H]1[C@@H](OC(=O)c2ccccc2)C[C@@H]2CC[C@H]1N2C [cocaine] | strong dopamine releasing properties | –
COC(=O)[C@@H]1[C@@H](c2ccc(F)cc2)C[C@@H]2CC[C@H]1N2C [trans isomer of Win 35,428, (1R,2R,3S)-2-carbomethoxy-3-(4-fluorophenyl)tropane] | – | essentially or totally devoid of side effects
